The source of these data is ChEMBL document CHEMBL1148300, “Synthesis and evaluation of oxazaborolidines for antibacterial activity against Streptococcus mutans” (2004).

≈ marks a conversion by molar mass, not a printed value.

The MIC is the lowest concentration found to suppress growth. A low value points to greater potency.

The test system of the test is Streptococcus mutans. Nature of the test: Minimal Inhibitory Concentration ofcompound against Streptococcus mutans. Type of test: functional.

In the case of `CCCCB1NC(C)(C)CO1`, 3.38 mM (≈ 524 µg/mL) was the least that counted as inhibitory (MIC). `CC1(C)COB(c2ccccc2)N1` had an MIC of 6 mM (≈ 1050 µg/mL).

In the case of `CCCCB1NC(C)C(c2ccccc2)O1` (stereo not drawn), inhibition of growth (MIC) required 2.83 mM (≈ 614 µg/mL). `CCCCB1OC(c2ccccc2)C(C)N1C` (stereo not drawn) showed an MIC of 0.53 mM (≈ 123 µg/mL).

Compound `CC1C(c2ccccc2)OB(c2ccccc2)N1C` (stereo not drawn) showed an MIC of 1.55 mM (≈ 389 µg/mL). As for `CC1NB(c2ccccc2)OC1c1ccccc1` (stereo not drawn), the figure is 1.33 mM (≈ 315 µg/mL); as for `c1ccc([B-]23OCC[NH+]2CCO3)cc1` (stereo not drawn), 6.75 mM (≈ 1290 µg/mL).

For the compound `CCCC[B-]12OCC[NH+]1CCO2` (stereo not drawn), the MIC is 6.75 mM (≈ 1150 µg/mL).
